Assay results: patent US11027021B2, “Combinations of PBD-based antibody drug conjugates with Bcl-2 inhibitors” (Seagen Inc., priority 2016, dated 2021)

Tests used:
RL cells = experiment: RL subcutaneous xenograft survival experiment; assay type: in vivo; conditions: ABT-199 alone 100 mg/kg daily by oral gavage for 14 days, SCID mice
Method: (§1) Tumor growth was monitored throughout the course of the study with bilateral vernier caliper measurements, and mean tumor volumes were calculated using the equation (0.5×[length×width^2]). […] Mice with advanced tumor burden were sacrificed upon reaching tumor volumes of greater than 400 mm^3 or showing symptoms of hind limb paralysis, cranial swelling, and/or moribundity.

MOLM-13 cells = experiment: MOLM-13 subcutaneous xenograft survival experiment; assay type: in vivo; conditions: ABT-199 alone 100 mg/kg daily by oral gavage for 14 days; MOLM-13 xenograft, SCID mice
Method: as §1

CC1(C)CCC(CN2CCN(c3ccc(C(=O)NS(=O)(=O)c4ccc(NCC5CCOCC5)c([N+](=O)[O-])c4)c(Oc4cnc5[nH]ccc5c4)c3)CC2)=C(c2ccc(Cl)cc2)C1 [ABT-199, 2-(1H-pyrrolo[2,3-b]pyridin-5-yloxy)-4-(4-((2-(4-chlorophenyl)-4,4-dimethylcyclohex-1-enyl)methyl)piperazin-1-yl)-N-(3-nitro-4-(((tetrahydro-2H-pyran-4-yl)methyl)amino)phenylsulfonyl)benzamide]
rate of survival by day 30 (RL cells): 0% | rate of survival by day 20 (MOLM-13 cells): 0%
